Data from the OPERA property sets (Mansouri et al. 2018).

conditions: not given

Row | Compound | boiling point | melting point | log10 Koa | log10 vapour pressure (mmHg) | ready biodegradability | log10 Koc (L/kg) | log10 biodegradation half-life (days) | log10 Henry constant (atm·m³/mol)
1 | CCC(CC)(CC)C(C)C | 172 °C | – | – | – | – | – | – | –
2 | CC1(C)CCCNC1 | 137 °C | – | – | – | – | – | – | –
3 | O=C(N/N=C/C=C/c1ccc([N+](=O)[O-])o1)c1ccc([N+](=O)[O-])s1 | – | 236 °C | – | – | – | – | – | –
4 | Clc1ccc2c(Cl)cc(Cl)c(Cl)c2c1 | – | – | 8.13 | -5.07 | – | – | – | –
5 | COc1cc(C)oc(=O)c1 | – | 86 °C | – | – | – | – | – | –
6 | C=CCC(C(C)=O)C(=O)OCC (configuration not stated) | 208 °C | – | – | – | – | – | – | –
7 | Cc1cccc2c1CCCC2C (configuration not stated) | 239 °C | – | – | – | – | – | – | –
8 | O=C(c1ccccc1)c1ccccc1O | – | 40 °C | – | – | – | – | – | –
9 | c1ccc(-c2cccnc2)nc1 | 296 °C | – | – | – | – | – | – | –
10 | OCC(Cl)(Cl)Cl | 152 °C | 19 °C | – | – | – | – | – | –
11 | C1=CCC=C1 | 41 °C | -85 °C | – | 2.64 | – | – | – | –
12 | CC(=O)O[C@H]1C[C@@H]2CC[C@@H]3[C@H](CC[C@@]4(C)[C@H]3C[C@H]([N+]3(C)CCCCC3)[C@@H]4OC(C)=O)[C@@]2(C)C[C@@H]1[N+]1(C)CCCCC1.[Br-].[Br-] | – | 215 °C | – | – | – | – | – | –
13 | Clc1cccc(Cl)c1N=C1NCCN1 | – | 130 °C | – | – | – | – | – | –
14 | COC(=O)c1cccc(OC)c1 | 248 °C | – | – | – | – | – | – | –
15 | CC(=O)S[C@@H]1CC2=CC(=O)CC[C@]2(C)[C@H]2CC[C@@]3(C)[C@@H](CC[C@@]34CCC(=O)O4)[C@H]12 | – | 208 °C | – | – | – | – | – | –
16 | COC(=O)COc1ccc(Cl)cc1Cl | – | 119 °C | – | -2.64 | – | – | – | –
17 | CCCC(=O)Nc1ccc(OCC(O)CNC(C)C)c(C(C)=O)c1 (configuration not stated) | – | 121 °C | – | – | – | – | – | –
18 | OCCOCCOCCOCCO | 328 °C | – | – | -4.33 | – | – | – | –
19 | COc1ccc2cc3[n+](cc2c1OC)CCc1cc2c(cc1-3)OCO2 | – | 145 °C | – | – | – | – | – | –

Row | Compound | boiling point | melting point | log10 Koa | log10 vapour pressure (mmHg) | ready biodegradability | log10 Koc (L/kg) | log10 biodegradation half-life (days) | log10 Henry constant (atm·m³/mol)
20 | NNc1c(F)c(F)cc(F)c1F | – | 92 °C | – | – | – | – | – | –
21 | O=C(OCCOc1ccc(Cl)cc1Cl)c1ccccc1 | – | 66 °C | – | – | – | – | – | –
22 | NC(=O)CC[C@H](N)C(=O)O | – | – | – | – | readily biodegradable | – | – | –
23 | CC(=O)c1cc2ccccc2o1 | – | 76 °C | – | – | – | – | – | –
24 | Brc1ccc2cccnc2c1 | 290 °C | 34 °C | – | – | – | – | – | –
25 | CCn1cc(C(=O)O)c(=O)c2cnc(N3CCCC3)nc21 | – | 315 °C | – | – | – | – | – | –
26 | N#Cc1ccccc1[N+](=O)[O-] | – | 108 °C | – | – | – | – | – | –
27 | Nc1cc(Cl)cc(Cl)c1 | 261 °C | 52 °C | – | – | not readily biodegradable | 2.49 | – | –
28 | Oc1ccc(Br)c(O)c1 | – | 103 °C | – | – | – | – | – | –
29 | N#CC(Cl)(Cl)Cl | 85.7 °C | -42 °C | – | 1.87 | – | – | – | –
30 | Cc1ccccc1C(N)=O | – | 147 °C | – | – | – | – | – | –
31 | S=C(S)N1CCNCC1 | – | 228 °C | – | – | – | – | – | –
32 | CC(C)CC(C)C | 80.4 °C | -120 °C | – | 1.9 | – | – | 1.68 | –
33 | CCCCCCCCCCCCCC(C)=O | 294 °C | 39.5 °C | – | – | – | – | – | –
34 | C=CC(F)(F)C(F)(F)C(F)(F)C(F)(F)C(F)(F)C(F)(F)C(F)(F)C(F)(F)F | 150 °C | – | – | – | – | – | – | –
35 | CCOC(=O)[C@H](CCc1ccccc1)N[C@H]1CCc2ccccc2N(CC(=O)O)C1=O | – | 148 °C | – | – | – | – | – | –
36 | C[C@H]1CCC[C@H](C)C1=O | 175 °C | – | – | – | – | – | – | –
37 | CCc1nc(CC)nc(NS(=O)(=O)c2ccc(N)cc2)n1 | – | 187 °C | – | – | not readily biodegradable | – | – | –
38 | CC(COc1ccccc1)NC(C)C(O)c1ccc(O)cc1 (configuration not stated) | – | 103 °C | – | – | – | – | – | –

Row | Compound | boiling point | melting point | log10 Koa | log10 vapour pressure (mmHg) | ready biodegradability | log10 Koc (L/kg) | log10 biodegradation half-life (days) | log10 Henry constant (atm·m³/mol)
39 | Cc1cccc([N+](=O)[O-])c1O | – | 70 °C | – | – | – | – | – | -4.47
40 | CNC[C@H](O)c1ccccc1 | – | 44 °C | – | – | – | – | – | –
41 | O=[N+]([O-])c1c(Cl)c(Cl)c(Cl)c(Cl)c1Cl | 328 °C | 144 °C | – | -4.3 | not readily biodegradable | 3.98 | – | –
42 | COc1ccccc1N=Nc1c(O)ccc2ccccc12 | – | 183 °C | – | – | – | – | – | –
43 | CCNC(=S)NCC | – | 78 °C | – | – | – | – | – | –
44 | COc1ccc([N+](=O)[O-])cc1N | – | 118 °C | – | – | – | – | – | –
45 | Cc1cc(Cl)nc2ccccc12 | 296 °C | 59 °C | – | – | – | – | – | –
46 | C#CCCCC | 71.3 °C | -132 °C | – | 2.12 | – | – | – | –
47 | O=C(Cl)C(Cl)Cl | 108 °C | – | – | 1.36 | – | – | – | –
48 | CCOC(=O)C(Cl)Cl | 155 °C | – | – | 0.456 | – | – | – | –
49 | CN(C)C=O | 153 °C | -60.4 °C | 4.38 | 0.588 | readily biodegradable | – | – | -7.13
50 | CC(=O)C(Cl)Cl | 120 °C | – | – | 1.43 | – | – | – | –
51 | COC(=O)[C@@H]1C2CCC(C[C@@H]1OC(=O)c1ccccc1)N2C (some centres not stated) | – | 98 °C | – | -6.72 | – | – | – | –
52 | CCOc1ccc(C#N)cc1 | 258 °C | 61.5 °C | – | – | – | – | – | –
53 | Nc1cccc(Cl)c1Cl | 252 °C | 24 °C | – | – | – | – | – | –
54 | O=C(O)CNC(=O)OCc1ccccc1 | – | 121 °C | – | – | – | – | – | –
55 | CCOC(=O)c1ccc2c(c1)OCO2 | 286 °C | 18.5 °C | – | – | – | – | – | –
56 | OCCOCCOCCO | 285 °C | -7 °C | – | – | readily biodegradable | – | – | –

same assay, conditions: fish

Row | Compound | log10 biotransformation half-life (days) | log10 BCF
57 | Clc1cc(Cl)c(-c2cc(Cl)c(Cl)c(Cl)c2)cc1Cl | 2.43 | –
58 | Nc1ccc2c(c1)C(=O)c1ccccc1C2=O | -1.06 | 1.51
59 | CC1(C)[C@H](C(=O)O[C@@H](C#N)c2cccc(Oc3ccccc3)c2)[C@@H]1C=C(Cl)Cl (single isomer, unassigned) | 0.7 | –
60 | O=[N+]([O-])c1c(Cl)c(Cl)c(Cl)c(Cl)c1Cl | -0.17 | 2.74
61 | CN(C)C=O | – | -0.1
